# Legend:
# [1] = test system: non-malignant Caco-2 cells; assay: Cell number determination, Caco-2; assay type: cell-based, human; conditions: 54 μM, 5 d
# Protocol: FIG. 9. The colon cancer cell lines were grown for 5 d either with vehicle control DMSO (gray symbols) or 54 μM BKAc-Puro (red and blue symbols), and cell number was determined at the indicated time points.
# (§1) Cell number was determined by cell counting using improved Neubauer hemacytometer. Cell viability was calculated as the number of viable cells divided by the total number of cells using Trypan Blue Stain (Invitrogen) to distinguish non-viable cells. Data were obtained from duplicated samples with quadruplicate measurements. MTS based cell viability assay was performed using CellTiter 96 Aqueous Cell Proliferation Assay (Promega) according to the manufacturer's instruction. Either 1 μl of DMSO alone or variable concentrations of BKAc-Puro or Puro in DMSO were added to the cell lines seeded at 5×10^4 cells per well in 96-well tissue culture plates in 100 μl of the growth medium, followed by 3-5 d incubation at 37° C. with 5% CO2 atmosphere. […] After additional 2-3 h incubation, the absorbance of the formazan at 490 nm was measured by the microplate reader. […] Determination of non-viable cells using PI staining was performed by adding 1 μg/ml of PI solution (Sigma) to the cell culture, prior to the examination under fluorescence microscopy (Axiovert 3, Carl Zeiss) through a×32 objective equipped with a digital imaging processor (Infinity 3, Lumenera).
# [2] = test system: normal mammary gland epithelial cells (Eph4); assay: PI staining cytotoxicity, normal mammary gland epithelial cells; assay type: cell-based, mouse
# Protocol: FIG. 17. Selective cytotoxicity by BKAc-Puro on breast cancer cells. Normal mammary gland epithelial cells (Eph4) and breast cancer cells (MCF-7 and MDA-MB-231) were grown and analyzed as in FIG. 10. BF, bright field. PI, fluorescent PI channel. BKAc-Puro can selectively cause cell death in breast cancer cells (MCF-7 and MDA-MB-231) while leaving normal Eph4 cells unharmed.
# as §1, with “instruction.” for “instruction. Either 1 μl of DMSO alone or variable concentrations of BKAc-Puro or Puro in DMSO were added to the cell lines seeded at 5×10^4 cells per well in 96-well tissue culture plates in 100 μl of the growth medium, followed by 3-5 d incubation at 37° C. with 5% CO2 atmosphere.”
smiles,measurement,setting,value
"COc1ccc(C[C@H](NC(=O)[C@H](CCCCNC(C)=O)NC(=O)OC(C)(C)C)C(=O)N[C@H]2[C@@H](O)[C@H](n3cnc4c(N(C)C)ncnc43)O[C@@H]2CO)cc1 [BKAc-Puro, N-[3′-(α-Amino-p-methoxyhydrocinnamamido)-3′-deoxy-N,N-dimethyldenosinyl]-N-α-(t-butoxycarbonyl)-N-ε-acetyl-L-lysineamide]",cell proliferation (cell number),[1],allowed them to proliferate to confluency
same,cell death,[2],unharmed

# Source: patent publication US9872919B2, “Prodrugs for selective anticancer therapy” (THE RESEARCH FOUNDATION FOR THE STATE UNIVERSITY OF NEW YORK, priority 2012, dated 2018)
